# Target: LIMK1 (human) (UniProt P53667)
# Assay: radiometric filter-binding kinase assay, Kinase HotSpot
# Conditions: compound 0.5 µM; ATP 10 µM
row,SMILES,residual activity [%]
1,O=c1c(-c2ccc(F)cc2)c(-c2ccncc2)[nH]n1-c1ccc(Cl)cc1,91.5
2,O=S(=O)(NCCNC/C=C/c1ccc(Br)cc1)c1cccc2cnccc12,90.6

# Target: MST1R (human) (UniProt Q04912)
# Assay: as above
# Conditions: compound 0.5 µM; ATP 10 µM
row,SMILES,residual activity [%]
1,CCc1nc(-c2ccc(OC)cc2)[nH]c1-c1ccncc1,101
2,Cc1cc(Nc2nc(-c3ccccc3)nc3ccccc23)n[nH]1,96.6
3,O=c1c(-c2ccc(F)cc2)c(-c2ccncc2)[nH]n1-c1ccc(Cl)cc1,95
4,O=S(=O)(NCCNC/C=C/c1ccc(Br)cc1)c1cccc2cnccc12,97.4

# Target: STK17A (human) (UniProt Q9UEE5)
# Assay: as above
# Conditions: compound 0.5 µM; ATP 10 µM
row,SMILES,residual activity [%]
1,CCc1nc(-c2ccc(OC)cc2)[nH]c1-c1ccncc1,96.1
2,Cc1cc(Nc2nc(-c3ccccc3)nc3ccccc23)n[nH]1,81.3
3,O=c1c(-c2ccc(F)cc2)c(-c2ccncc2)[nH]n1-c1ccc(Cl)cc1,105
4,O=S(=O)(NCCNC/C=C/c1ccc(Br)cc1)c1cccc2cnccc12,100

# Target: CAMKK2 (human) (UniProt Q96RR4)
# Assay: as above
# Conditions: compound 0.5 µM; ATP 10 µM
row,SMILES,residual activity [%]
1,CCc1nc(-c2ccc(OC)cc2)[nH]c1-c1ccncc1,109
2,Cc1cc(Nc2nc(-c3ccccc3)nc3ccccc23)n[nH]1,88.6
3,O=c1c(-c2ccc(F)cc2)c(-c2ccncc2)[nH]n1-c1ccc(Cl)cc1,83
4,O=S(=O)(NCCNC/C=C/c1ccc(Br)cc1)c1cccc2cnccc12,95.6

# Target: GRK7 (human) (UniProt Q8WTQ7)
# Assay: as above
# Conditions: compound 0.5 µM; ATP 10 µM
row,SMILES,residual activity [%]
1,CCc1nc(-c2ccc(OC)cc2)[nH]c1-c1ccncc1,101
2,Cc1cc(Nc2nc(-c3ccccc3)nc3ccccc23)n[nH]1,79.2

# Target: MAP3K14 (human) (UniProt Q99558)
# Assay: as above
# Conditions: compound 0.5 µM; ATP 10 µM
row,SMILES,residual activity [%]
1,CCc1nc(-c2ccc(OC)cc2)[nH]c1-c1ccncc1,118
2,Cc1cc(Nc2nc(-c3ccccc3)nc3ccccc23)n[nH]1,93.5
3,O=c1c(-c2ccc(F)cc2)c(-c2ccncc2)[nH]n1-c1ccc(Cl)cc1,102
4,O=S(=O)(NCCNC/C=C/c1ccc(Br)cc1)c1cccc2cnccc12,83.6

# Target: PAK1 (human) (UniProt Q13153)
# Assay: as above
# Conditions: compound 0.5 µM; ATP 10 µM
row,SMILES,residual activity [%]
1,CCc1nc(-c2ccc(OC)cc2)[nH]c1-c1ccncc1,99.3
2,Cc1cc(Nc2nc(-c3ccccc3)nc3ccccc23)n[nH]1,79.5
3,O=c1c(-c2ccc(F)cc2)c(-c2ccncc2)[nH]n1-c1ccc(Cl)cc1,92.4
4,O=S(=O)(NCCNC/C=C/c1ccc(Br)cc1)c1cccc2cnccc12,90.2

# Target: MST4 (human) (UniProt Q9P289)
# Assay: as above
# Conditions: compound 0.5 µM; ATP 10 µM
row,SMILES,residual activity [%]
1,CCc1nc(-c2ccc(OC)cc2)[nH]c1-c1ccncc1,106
2,Cc1cc(Nc2nc(-c3ccccc3)nc3ccccc23)n[nH]1,91.2
3,O=c1c(-c2ccc(F)cc2)c(-c2ccncc2)[nH]n1-c1ccc(Cl)cc1,94.1
4,O=S(=O)(NCCNC/C=C/c1ccc(Br)cc1)c1cccc2cnccc12,94.8

# Target: NEK7 (human) (UniProt Q8TDX7)
# Assay: as above
# Conditions: compound 0.5 µM; ATP 10 µM
row,SMILES,residual activity [%]
1,CCc1nc(-c2ccc(OC)cc2)[nH]c1-c1ccncc1,99.8
2,Cc1cc(Nc2nc(-c3ccccc3)nc3ccccc23)n[nH]1,97.7
3,O=c1c(-c2ccc(F)cc2)c(-c2ccncc2)[nH]n1-c1ccc(Cl)cc1,90.1
4,O=S(=O)(NCCNC/C=C/c1ccc(Br)cc1)c1cccc2cnccc12,96.9

# Target: RPS6KA4 KD2 (human) (UniProt O75676)
# Assay: as above
# Conditions: compound 0.5 µM; ATP 10 µM
row,SMILES,residual activity [%]
1,CCc1nc(-c2ccc(OC)cc2)[nH]c1-c1ccncc1,98.6
2,Cc1cc(Nc2nc(-c3ccccc3)nc3ccccc23)n[nH]1,108
3,O=c1c(-c2ccc(F)cc2)c(-c2ccncc2)[nH]n1-c1ccc(Cl)cc1,103
4,O=S(=O)(NCCNC/C=C/c1ccc(Br)cc1)c1cccc2cnccc12,38.8

# Target: ROS1 (human) (UniProt P08922)
# Assay: as above
# Conditions: compound 0.5 µM; ATP 10 µM
row,SMILES,residual activity [%]
1,CCc1nc(-c2ccc(OC)cc2)[nH]c1-c1ccncc1,91.8
2,Cc1cc(Nc2nc(-c3ccccc3)nc3ccccc23)n[nH]1,16.7
3,O=c1c(-c2ccc(F)cc2)c(-c2ccncc2)[nH]n1-c1ccc(Cl)cc1,97.6
4,O=S(=O)(NCCNC/C=C/c1ccc(Br)cc1)c1cccc2cnccc12,99.6

# Target: ALK (human) (UniProt Q9UM73)
# Assay: as above
# Conditions: compound 0.5 µM; ATP 10 µM
row,SMILES,residual activity [%]
1,CCc1nc(-c2ccc(OC)cc2)[nH]c1-c1ccncc1,106
2,Cc1cc(Nc2nc(-c3ccccc3)nc3ccccc23)n[nH]1,75.9
3,O=c1c(-c2ccc(F)cc2)c(-c2ccncc2)[nH]n1-c1ccc(Cl)cc1,83.8
4,O=S(=O)(NCCNC/C=C/c1ccc(Br)cc1)c1cccc2cnccc12,101

# Target: FER (human) (UniProt P16591)
# Assay: as above
# Conditions: compound 0.5 µM; ATP 10 µM
# Sequence of FER (human) (P16591 whole entry, looked up): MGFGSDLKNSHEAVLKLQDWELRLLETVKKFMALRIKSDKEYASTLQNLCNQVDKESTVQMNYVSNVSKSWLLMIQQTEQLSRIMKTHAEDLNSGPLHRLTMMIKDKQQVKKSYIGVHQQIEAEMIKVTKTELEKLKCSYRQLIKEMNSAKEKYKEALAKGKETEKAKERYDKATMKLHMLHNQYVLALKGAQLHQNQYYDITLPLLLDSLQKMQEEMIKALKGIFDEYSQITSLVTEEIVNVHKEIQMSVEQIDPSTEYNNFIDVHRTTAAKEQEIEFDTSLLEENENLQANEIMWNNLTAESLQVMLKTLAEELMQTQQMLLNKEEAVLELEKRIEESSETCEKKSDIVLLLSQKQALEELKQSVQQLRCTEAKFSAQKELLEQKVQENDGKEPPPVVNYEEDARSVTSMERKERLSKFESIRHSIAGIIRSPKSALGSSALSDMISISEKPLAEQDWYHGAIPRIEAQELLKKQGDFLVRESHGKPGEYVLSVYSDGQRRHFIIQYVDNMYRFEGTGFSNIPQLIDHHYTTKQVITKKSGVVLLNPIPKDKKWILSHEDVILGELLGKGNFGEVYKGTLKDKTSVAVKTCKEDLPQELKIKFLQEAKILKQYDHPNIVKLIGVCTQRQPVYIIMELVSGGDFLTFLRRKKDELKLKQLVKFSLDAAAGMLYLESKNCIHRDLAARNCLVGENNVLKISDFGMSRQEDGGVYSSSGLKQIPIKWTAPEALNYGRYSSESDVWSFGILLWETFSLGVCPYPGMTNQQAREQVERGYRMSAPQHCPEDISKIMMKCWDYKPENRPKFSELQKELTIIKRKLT
row,SMILES,residual activity [%]
1,CCc1nc(-c2ccc(OC)cc2)[nH]c1-c1ccncc1,96.4
2,Cc1cc(Nc2nc(-c3ccccc3)nc3ccccc23)n[nH]1,31.6
3,O=c1c(-c2ccc(F)cc2)c(-c2ccncc2)[nH]n1-c1ccc(Cl)cc1,94.3
4,O=S(=O)(NCCNC/C=C/c1ccc(Br)cc1)c1cccc2cnccc12,97.6

# Target: WNK2 (human) (UniProt Q9Y3S1)
# Assay: as above
# Conditions: compound 0.5 µM; ATP 10 µM
# Sequence of WNK2 (human) (Q9Y3S1 whole entry, looked up): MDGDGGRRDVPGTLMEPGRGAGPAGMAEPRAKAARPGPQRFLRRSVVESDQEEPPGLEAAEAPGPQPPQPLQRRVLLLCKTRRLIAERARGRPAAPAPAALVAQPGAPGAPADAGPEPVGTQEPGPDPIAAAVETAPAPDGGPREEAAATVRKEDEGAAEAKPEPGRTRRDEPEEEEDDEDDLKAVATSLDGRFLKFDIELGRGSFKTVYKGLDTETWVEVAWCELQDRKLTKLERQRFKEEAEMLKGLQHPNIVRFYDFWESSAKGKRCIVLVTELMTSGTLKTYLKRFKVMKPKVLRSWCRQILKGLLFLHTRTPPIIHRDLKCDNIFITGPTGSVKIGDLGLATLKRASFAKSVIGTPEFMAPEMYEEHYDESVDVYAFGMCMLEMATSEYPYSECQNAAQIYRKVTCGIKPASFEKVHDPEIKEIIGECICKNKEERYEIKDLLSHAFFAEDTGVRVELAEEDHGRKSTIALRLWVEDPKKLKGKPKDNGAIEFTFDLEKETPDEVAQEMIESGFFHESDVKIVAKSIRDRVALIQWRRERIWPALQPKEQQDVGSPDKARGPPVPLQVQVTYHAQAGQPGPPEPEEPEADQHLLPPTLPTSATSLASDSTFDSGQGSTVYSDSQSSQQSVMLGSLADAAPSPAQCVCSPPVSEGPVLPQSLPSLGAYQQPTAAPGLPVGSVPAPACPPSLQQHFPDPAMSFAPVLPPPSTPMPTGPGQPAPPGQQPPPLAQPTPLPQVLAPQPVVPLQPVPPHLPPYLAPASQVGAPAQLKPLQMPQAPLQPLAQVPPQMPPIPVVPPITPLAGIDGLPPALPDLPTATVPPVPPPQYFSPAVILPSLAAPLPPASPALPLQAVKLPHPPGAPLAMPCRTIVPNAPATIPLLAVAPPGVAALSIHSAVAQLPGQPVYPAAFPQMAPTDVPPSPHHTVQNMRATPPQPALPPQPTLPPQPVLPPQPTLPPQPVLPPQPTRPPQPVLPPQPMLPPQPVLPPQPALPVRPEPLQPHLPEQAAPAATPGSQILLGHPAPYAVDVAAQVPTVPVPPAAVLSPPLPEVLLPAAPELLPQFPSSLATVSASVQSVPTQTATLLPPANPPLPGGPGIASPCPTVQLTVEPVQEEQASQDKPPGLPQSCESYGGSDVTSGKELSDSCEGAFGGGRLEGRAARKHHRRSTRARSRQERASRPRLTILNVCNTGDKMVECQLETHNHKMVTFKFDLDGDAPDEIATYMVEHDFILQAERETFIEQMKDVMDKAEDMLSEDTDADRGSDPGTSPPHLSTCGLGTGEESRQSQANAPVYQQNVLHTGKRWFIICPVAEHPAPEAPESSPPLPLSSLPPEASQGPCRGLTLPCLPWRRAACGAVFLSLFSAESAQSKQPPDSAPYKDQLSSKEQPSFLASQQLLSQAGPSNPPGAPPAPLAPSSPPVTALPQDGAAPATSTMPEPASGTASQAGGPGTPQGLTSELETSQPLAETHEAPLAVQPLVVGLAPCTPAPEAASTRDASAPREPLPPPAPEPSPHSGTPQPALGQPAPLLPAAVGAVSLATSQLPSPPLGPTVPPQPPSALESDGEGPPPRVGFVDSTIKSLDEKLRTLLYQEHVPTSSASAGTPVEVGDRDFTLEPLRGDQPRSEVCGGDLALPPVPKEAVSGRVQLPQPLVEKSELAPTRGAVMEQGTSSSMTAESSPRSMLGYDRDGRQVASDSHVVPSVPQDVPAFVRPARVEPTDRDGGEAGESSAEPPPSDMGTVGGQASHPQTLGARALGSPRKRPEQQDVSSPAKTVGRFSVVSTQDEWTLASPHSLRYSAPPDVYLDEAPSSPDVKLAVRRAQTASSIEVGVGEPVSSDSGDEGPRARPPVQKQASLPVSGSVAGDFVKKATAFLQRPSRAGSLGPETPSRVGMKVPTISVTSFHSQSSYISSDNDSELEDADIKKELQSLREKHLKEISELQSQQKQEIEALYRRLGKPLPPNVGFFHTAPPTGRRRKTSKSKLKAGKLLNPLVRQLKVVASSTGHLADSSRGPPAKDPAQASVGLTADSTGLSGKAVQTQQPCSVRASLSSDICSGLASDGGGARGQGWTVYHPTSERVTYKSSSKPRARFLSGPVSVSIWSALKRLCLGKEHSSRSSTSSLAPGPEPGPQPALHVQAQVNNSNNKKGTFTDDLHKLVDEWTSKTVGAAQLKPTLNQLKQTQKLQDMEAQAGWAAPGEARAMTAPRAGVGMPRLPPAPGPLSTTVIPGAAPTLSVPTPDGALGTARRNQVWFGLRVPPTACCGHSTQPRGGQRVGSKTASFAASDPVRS
row,SMILES,residual activity [%]
1,CCc1nc(-c2ccc(OC)cc2)[nH]c1-c1ccncc1,104
2,Cc1cc(Nc2nc(-c3ccccc3)nc3ccccc23)n[nH]1,82.6
3,O=c1c(-c2ccc(F)cc2)c(-c2ccncc2)[nH]n1-c1ccc(Cl)cc1,112
4,O=S(=O)(NCCNC/C=C/c1ccc(Br)cc1)c1cccc2cnccc12,99.4

# Target: BRSK1 (human) (UniProt Q8TDC3)
# Assay: as above
# Conditions: compound 0.5 µM; ATP 10 µM
# Sequence of BRSK1 (human) (Q8TDC3 whole entry, looked up): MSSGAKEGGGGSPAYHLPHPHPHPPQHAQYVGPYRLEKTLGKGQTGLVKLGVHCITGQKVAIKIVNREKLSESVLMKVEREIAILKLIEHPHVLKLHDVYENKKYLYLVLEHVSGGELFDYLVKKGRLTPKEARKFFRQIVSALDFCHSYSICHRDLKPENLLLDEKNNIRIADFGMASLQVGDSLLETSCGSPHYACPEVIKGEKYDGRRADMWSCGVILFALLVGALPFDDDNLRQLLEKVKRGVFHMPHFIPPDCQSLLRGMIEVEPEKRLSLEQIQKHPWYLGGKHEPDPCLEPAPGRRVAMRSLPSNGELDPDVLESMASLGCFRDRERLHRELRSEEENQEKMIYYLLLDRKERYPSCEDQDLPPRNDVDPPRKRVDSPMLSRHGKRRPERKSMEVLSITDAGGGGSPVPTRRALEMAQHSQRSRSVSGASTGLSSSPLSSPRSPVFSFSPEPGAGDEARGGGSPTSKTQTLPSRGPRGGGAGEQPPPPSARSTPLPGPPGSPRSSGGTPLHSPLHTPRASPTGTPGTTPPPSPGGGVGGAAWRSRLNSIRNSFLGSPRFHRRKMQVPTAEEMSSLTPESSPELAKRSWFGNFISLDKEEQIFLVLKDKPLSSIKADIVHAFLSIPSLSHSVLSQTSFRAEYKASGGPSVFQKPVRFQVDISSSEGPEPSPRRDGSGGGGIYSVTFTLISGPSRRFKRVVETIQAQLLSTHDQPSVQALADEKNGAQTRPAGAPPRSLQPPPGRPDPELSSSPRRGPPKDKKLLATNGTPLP
row,SMILES,residual activity [%]
1,CCc1nc(-c2ccc(OC)cc2)[nH]c1-c1ccncc1,101
2,O=c1c(-c2ccc(F)cc2)c(-c2ccncc2)[nH]n1-c1ccc(Cl)cc1,88.7
3,O=S(=O)(NCCNC/C=C/c1ccc(Br)cc1)c1cccc2cnccc12,92

# Target: PIM3 (human) (UniProt Q86V86)
# Assay: as above
# Conditions: compound 0.5 µM; ATP 10 µM
row,SMILES,residual activity [%]
1,CCc1nc(-c2ccc(OC)cc2)[nH]c1-c1ccncc1,112
2,Cc1cc(Nc2nc(-c3ccccc3)nc3ccccc23)n[nH]1,130
3,O=c1c(-c2ccc(F)cc2)c(-c2ccncc2)[nH]n1-c1ccc(Cl)cc1,89.9
4,O=S(=O)(NCCNC/C=C/c1ccc(Br)cc1)c1cccc2cnccc12,98.3

# Target: MKNK2 (human) (UniProt Q9HBH9)
# Assay: as above
# Conditions: compound 0.5 µM; ATP 10 µM
row,SMILES,residual activity [%]
1,CCc1nc(-c2ccc(OC)cc2)[nH]c1-c1ccncc1,88.2
2,Cc1cc(Nc2nc(-c3ccccc3)nc3ccccc23)n[nH]1,71.8
3,O=c1c(-c2ccc(F)cc2)c(-c2ccncc2)[nH]n1-c1ccc(Cl)cc1,97.2
4,O=S(=O)(NCCNC/C=C/c1ccc(Br)cc1)c1cccc2cnccc12,78.7

# Target: ACVR1 (human) (UniProt Q04771)
# Assay: as above
# Conditions: compound 0.5 µM; ATP 10 µM
row,SMILES,residual activity [%]
1,CCc1nc(-c2ccc(OC)cc2)[nH]c1-c1ccncc1,95.8
2,Cc1cc(Nc2nc(-c3ccccc3)nc3ccccc23)n[nH]1,149
3,O=c1c(-c2ccc(F)cc2)c(-c2ccncc2)[nH]n1-c1ccc(Cl)cc1,91.7
4,O=S(=O)(NCCNC/C=C/c1ccc(Br)cc1)c1cccc2cnccc12,96.4

# Target: CSNK1A1 (human) (UniProt P48729)
# Assay: as above
# Conditions: compound 0.5 µM; ATP 10 µM
# Sequence of CSNK1A1 (human) (P48729 whole entry, looked up): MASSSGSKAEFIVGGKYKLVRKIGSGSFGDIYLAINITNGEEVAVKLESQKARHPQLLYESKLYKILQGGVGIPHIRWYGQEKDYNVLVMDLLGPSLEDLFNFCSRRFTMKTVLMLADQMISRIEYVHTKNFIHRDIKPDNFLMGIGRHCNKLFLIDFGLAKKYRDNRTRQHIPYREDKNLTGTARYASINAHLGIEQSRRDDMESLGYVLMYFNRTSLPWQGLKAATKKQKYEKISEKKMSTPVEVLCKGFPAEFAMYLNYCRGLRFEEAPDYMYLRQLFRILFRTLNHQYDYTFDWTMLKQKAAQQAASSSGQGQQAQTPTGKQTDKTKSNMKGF
row,SMILES,residual activity [%]
1,CCc1nc(-c2ccc(OC)cc2)[nH]c1-c1ccncc1,99.4
2,Cc1cc(Nc2nc(-c3ccccc3)nc3ccccc23)n[nH]1,94.6
3,O=c1c(-c2ccc(F)cc2)c(-c2ccncc2)[nH]n1-c1ccc(Cl)cc1,63.7
4,O=S(=O)(NCCNC/C=C/c1ccc(Br)cc1)c1cccc2cnccc12,57.9

# Target: FGFR4 (human) (UniProt P22455)
# Assay: as above
# Conditions: compound 0.5 µM; ATP 10 µM
row,SMILES,residual activity [%]
1,CCc1nc(-c2ccc(OC)cc2)[nH]c1-c1ccncc1,95.9
2,Cc1cc(Nc2nc(-c3ccccc3)nc3ccccc23)n[nH]1,81.9
3,O=c1c(-c2ccc(F)cc2)c(-c2ccncc2)[nH]n1-c1ccc(Cl)cc1,92.4
4,O=S(=O)(NCCNC/C=C/c1ccc(Br)cc1)c1cccc2cnccc12,85.3

# Target: MAP3K8 (human) (UniProt P41279)
# Assay: as above
# Conditions: compound 0.5 µM; ATP 10 µM
# Sequence of MAP3K8 (human) (P41279 whole entry, looked up): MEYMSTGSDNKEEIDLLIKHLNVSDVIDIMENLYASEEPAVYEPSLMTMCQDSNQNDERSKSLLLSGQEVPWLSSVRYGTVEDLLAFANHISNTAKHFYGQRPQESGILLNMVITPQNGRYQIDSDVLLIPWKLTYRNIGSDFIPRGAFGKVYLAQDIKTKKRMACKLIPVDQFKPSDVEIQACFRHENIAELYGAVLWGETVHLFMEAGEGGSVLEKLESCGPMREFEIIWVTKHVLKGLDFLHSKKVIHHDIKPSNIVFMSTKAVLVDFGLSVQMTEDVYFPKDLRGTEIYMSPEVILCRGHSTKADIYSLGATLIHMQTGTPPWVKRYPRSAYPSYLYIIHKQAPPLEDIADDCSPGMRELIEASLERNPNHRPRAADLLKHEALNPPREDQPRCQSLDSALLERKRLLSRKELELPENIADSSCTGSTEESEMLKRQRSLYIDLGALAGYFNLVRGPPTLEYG
row,SMILES,residual activity [%]
1,CCc1nc(-c2ccc(OC)cc2)[nH]c1-c1ccncc1,95
2,Cc1cc(Nc2nc(-c3ccccc3)nc3ccccc23)n[nH]1,105
3,O=c1c(-c2ccc(F)cc2)c(-c2ccncc2)[nH]n1-c1ccc(Cl)cc1,87.1
4,O=S(=O)(NCCNC/C=C/c1ccc(Br)cc1)c1cccc2cnccc12,99.4

# Target: IKBKB (human) (UniProt O14920)
# Assay: as above
# Conditions: compound 0.5 µM; ATP 10 µM
row,SMILES,residual activity [%]
1,CCc1nc(-c2ccc(OC)cc2)[nH]c1-c1ccncc1,106
2,Cc1cc(Nc2nc(-c3ccccc3)nc3ccccc23)n[nH]1,69.8
3,O=c1c(-c2ccc(F)cc2)c(-c2ccncc2)[nH]n1-c1ccc(Cl)cc1,102
4,O=S(=O)(NCCNC/C=C/c1ccc(Br)cc1)c1cccc2cnccc12,89.5
